A short description of one data set: Water solubility. It is filed as physicochemical. The note with it: compared with 7 and 17e.
The subject of data set [1] is Stat3 phosphorylation in JJN3 cells. It is filed as cell-based, human. The note with it: 24 hrs.
In data set [2] the test system is Stat3 phosphorylation in MDA-468 cells. It is filed as cell-based, human. The note with it: 24 hrs.
Data set [3] has as its system DU145 (prostate) cancer cells. Kind of data set: Whole cell MTS cytotoxicity assay, DU145. The settings on record: Homo sapiens, DU-145, 72 h, read-out: EC50 DU145. It is filed as cell-based.
Data set [4] deals with MDA-468 (breast) cancer cells. Description: Whole cell MTS cytotoxicity assay, MDA-468. It is filed as cell-based. The settings on record: Homo sapiens, 72 h, read-out: EC50 MDA-468.
In data set [5] the test system is JJN3 (multiple myeloma) cancer cells. Kind of data set: Whole cell MTS cytotoxicity assay, JJN3. It is filed as cell-based. The note with it: Homo sapiens, JJN-3, 72 h, read-out: EC50 JJN3.
In another data set the test system is breast tumor xenografts. The settings on record: cited from earlier work.
A further data set deals with Stat1. The note with it: read-out: Stat1 Ki, fluorescence polarization; earlier work on 7; cited from earlier work. On the technique in general: Fluorescence polarisation rises when a labelled molecule tumbles more slowly, as on binding a larger partner.
Another data set deals with Stat5. The note with it: read-out: Stat5 Ki, fluorescence polarization; earlier work on 7; cited from earlier work.
Data set [6] has as its system NIH3T3, TE-71 and HPDEC cells. The settings on record: cited from earlier work.

Bounds are passed on as bounds.

In the case of `CN(CC(=O)N(Cc1ccc(C2CCCCC2)cc1)c1ccc(C(=O)O)c(O)c1)S(=O)(=O)c1c(F)c(F)c(F)c(F)c1F` [17o], the “water solubility (in words)” value in “Water solubility” is “much improved water solubility over both 7 and 17e”. The “levels of Stat3 downstream targets (cMYC, Bcl-xL, Survivin)” value in data set [1] (immunoblotting) and in data set [2] (immunoblotting) was “effectively reduced levels of Stat3 downstream targets” each time.

In general, EC50 refers to the concentration needed to bring the measured effect to its halfway point. What is called Ki is a measure of affinity in units of concentration, obtained from inhibition or displacement. Consider `Cc1ccc(S(=O)(=O)N(C)CC(=O)N(Cc2ccc(C3CCCCC3)cc2)c2ccc(C(=O)O)c(O)c2)cc1` [compound 7], for which the concentration for a half-maximal effect (EC50) in data set [3] amounted to 37.2 ± 12.4 µM; in [4], 17 ± 4.4 µM; in data set [5], 93.3 ± 15.8 µM. Further, in the data set on breast tumor xenografts, the “in vivo effect on breast tumor xenografts” value is on record as “suppression of breast tumor xenografts”. Besides, the “concentration at which Stat3 phosphorylation is inhibited” value in [1] (Western blot) and in data set [2] (Western blot) was “approximately 100 μM” in each case. Further, the inhibition constant Ki on Stat1 and on Stat5 was over 25 µM in each case. In addition, the “effects against 'healthy' cells lacking activated Stat3” value in data set [6] is “negligible effects”.

The values above are taken from paper PMC4530782 (Bioorganic & medicinal chemistry letters, 2011).
